Experimental data as given in publication PMC12040169 (PLOS Biology, 2025).

Test: in vitro
Settings: human, hela cells, % viability

Structure (SMILES) | viability at 28.5 h, 10 µM
OCCCNc1cncc(-c2ccc(F)cc2F)n1 [CBK065851] | 96.1%
CCOc1ccc(-c2cncc(Nc3ccc(C#N)cc3)n2)cc1 [CBK065862] | 87.2%
Fc1ccc(-c2cncc(NCCCN3CCOCC3)n2)c(F)c1 [CBK065867] | 91.3%
CC(C)[C@@H](CO)Nc1cncc(-c2ccc(F)cc2F)n1 [CBK065875] | 98.5%
CCOc1ccc(-c2cncc(NCCc3c[nH]c4ccccc34)n2)cc1 [CBK065876] | 93%
OCC1CCCN1c1cncc(-c2ccc(F)cc2F)n1 (stereo not drawn) [CBK065891] | 112%
CN(C)CCN(C)c1cncc(-c2ccc3c(c2)OCO3)n1 [CBK065897] | 101%
O=C(O)C1CCN(c2cncc(-c3ccc(F)cc3F)n2)CC1 [CBK065899] | 95.2%
OC1CCC(Nc2cncc(-c3cccc4ccccc34)n2)CC1 (stereo not drawn) [CBK065902] | 90.2%
FC(F)(F)Oc1cccc(-c2cncc(NCc3cccs3)n2)c1 [CBK065909] | 97.5%
COc1cc(CNc2cncc(-c3ccc4c(c3)OCO4)n2)cc(OC)c1OC [CBK065922] | 99.5%
c1coc(CNc2cncc(-c3ccc4c(c3)OCO4)n2)c1 [CBK065930] | 101%
C[C@@H](Nc1cncc(-c2ccc3c(c2)OCO3)n1)c1ccccc1 [CBK065954] | 108%
CCOc1cccc(-c2cncc(N(C)CCN(C)C)n2)c1 [CBK065977] | 102%
CN1CCCN(c2cncc(-c3ccc4c(c3)OCO4)n2)CC1 [CBK065978] | 91.7%
OCCNc1cncc(-c2ccc3c(c2)OCO3)n1 [CBK065979] | 85.6%
CN1CCCN(c2cncc(-c3cc4ccccc4o3)n2)CC1 [CBK065997] | 93%
Fc1ccc(CNc2cncc(-c3cc4ccccc4o3)n2)cc1 [CBK066005] | 122%
CC(=O)Nc1ccc(-c2cncc(Nc3ccc(C#N)cc3)n2)cc1 [CBK066009] | 97.5%
OCCN(CCO)c1cncc(-c2ccc(F)c(Cl)c2)n1 [CBK066015] | 96.3%
CCOc1cccc(-c2cncc(NC(C)CCCC(C)(C)O)n2)c1 (stereo not drawn) [CBK066020] | 95.6%
CN(C)CCN(C)c1cncc(-c2cc3ccccc3o2)n1 [CBK066028] | 92.7%
CC(C)(CO)CNc1cncc(-c2cc3ccccc3o2)n1 [CBK066029] | 91.1%
OC1CCC(Nc2cncc(-c3cccc(Cl)c3)n2)CC1 (stereo not drawn) [CBK066031] | 91%

Structure (SMILES) | viability at 28.5 h, 10 µM
c1ccc(CCNc2cncc(-c3cc4ccccc4o3)n2)nc1 [CBK066036] | 96.5%
CCOc1cccc(-c2cncc(N[C@H](C)c3ccccc3)n2)c1 [CBK066042] | 103%
O=C(c1ccco1)N1CCN(c2cncc(-c3cc4ccccc4o3)n2)CC1 [CBK066044] | 101%
c1ccc2oc(-c3cncc(N4CCN(CCN5CCCC5)CC4)n3)cc2c1 [CBK066052] | 97.1%
C[C@@H](Nc1cncc(-c2ccncc2)n1)c1ccccc1 [CBK066055] | 90%
c1ccc2oc(-c3cncc(NCCc4c[nH]c5ccccc45)n3)cc2c1 [CBK066068] | 93.1%
CC(CCCC(C)(C)O)Nc1cncc(-c2ccc(C(N)=O)cc2)n1 (stereo not drawn) [CBK066071] | 103%
CCOc1cccc(-c2cncc(NCCO)n2)c1 [CBK066075] | 81%
CCCC/C=C/c1cncc(NCCc2c[nH]c3ccccc23)n1 [CBK066081] | 100%
O=C(O)/C=C/c1cccc(-c2cncc(N3CCN(Cc4ccccn4)CC3)n2)c1 [CBK066085] | 96%
CC(C)(CO)CNc1cncc(-c2ccccc2CO)n1 [CBK066088] | 96.3%
OCCC1CCCCN1c1cncc(C2CCOC2)n1 (stereo not drawn) [CBK066127] | 101%
COc1cc(CNc2cncc(-c3cccc(NC(C)=O)c3)n2)cc(OC)c1OC [CBK066133] | 100%
OCc1cccc(-c2cncc(N3CCN(CCN4CCCC4)CC3)n2)c1 [CBK066136] | 99.8%
COc1ccccc1-c1cn2ccnc2c(N(C)CCN(C)C)n1 [CBK066156] | 97.5%
O=C(O)CCc1ccc(-c2cn3ccnc3c(N3CCOCC3)n2)cc1 [CBK066166] | 93.6%
c1ccc(-c2cn3ccnc3c(N3CCN(c4ccncc4)CC3)n2)cc1 [CBK066177] | 110%
COc1cc(-c2cn3ccnc3c(N[C@H](CO)C(C)C)n2)cc(OC)c1OC [CBK066220] | 103%
c1ccc(Nc2nc(-c3ccc(N4CCOCC4)cc3)cn3ccnc23)cc1 [CBK066222] | 90.4%
Clc1cccc(-c2cn3ccnc3c(NCc3cccnc3)n2)c1 [CBK066237] | 104%
Brc1cn2ccnc2c(NCCc2ccccn2)n1 [CBK066244] | 92.9%
COc1cc(Nc2nc(-c3cccc(C(=O)NCCN(C)C)c3)cn3ccnc23)cc(OC)c1OC [CBK066250] | 89%
COc1ccc(Nc2nc(-c3ccc(Cl)cc3)cn3ccnc23)cn1 [CBK066254] | 113%
CCN(CCO)c1ccc(Nc2nc(-c3c(OC)cccc3OC)cn3ccnc23)cc1 [CBK066267] | 89.9%

Structure (SMILES) | viability at 28.5 h, 10 µM
CCCC/C=C/c1cn2ccnc2c(NCCc2ccccn2)n1 [CBK066275] | 106%
CN(C)CCN(C)c1nc(-c2ccc3[nH]ccc3c2)cn2ccnc12 [CBK066276] | 94.4%
FC(F)C(F)(F)Oc1cccc(Nc2nccn3ccnc23)c1 [CBK066284] | 91.6%
c1ccc2cc(-c3cn4ccnc4c(NC4CCOCC4)n3)ccc2c1 [CBK066290] | 96.1%
CC(C)[C@H](CO)Nc1nc(-c2ccco2)cn2ccnc12 [CBK066316] | 103%
COc1ccc(C(C)C)cc1-c1cn2ccnc2c(NC2CCOCC2)n1 [CBK066320] | 94%
CC(=O)Nc1ccc(Nc2nc(Br)cn3ccnc23)cc1 [CBK066338] | 104%
c1ccc2c(-c3cn4ccnc4c(Nc4ccc5cn[nH]c5c4)n3)cccc2c1 [CBK066346] | 88%
c1ccc2cc(-c3cn4ccnc4c(Nc4ccc(N5CCOCC5)cc4)n3)ccc2c1 [CBK066359] | 108%
CCCNc1nc(-c2cc(OC)c(OC)c(OC)c2)cn2ccnc12 [CBK066363] | 99.2%
c1ccc2cc(-c3cn4ccnc4c(N4CCN(c5ccncc5)CC4)n3)ccc2c1 [CBK066369] | 89.2%
CCNc1nc(-c2cccc(/C=C/C(=O)O)c2)cn2ccnc12 [CBK066373] | 88.5%
CCCNc1nc(-c2cccc(O)c2)cn2ccnc12 [CBK066395] | 93.5%
COc1ccccc1-c1cn2ccnc2c(Nc2cccc(Cl)c2)n1 [CBK066399] | 89.4%
COCCNc1nc(-c2ccoc2)cn2ccnc12 [CBK066416] | 104%
CCNc1nc(-c2ccc(S(C)(=O)=O)cc2)cn2ccnc12 [CBK066452] | 87.1%
Nc1ccc(-c2cn3ccnc3c(Nc3ccc(Cl)cc3)n2)cc1 [CBK066453] | 87%
CN(C)CCN(C)c1nc(-c2ccc(C(C)(C)C)cc2)cn2ccnc12 [CBK066477] | 107%
Cc1cccc(-c2cn3ccnc3c(N3CCN(c4ccccn4)CC3)n2)c1 [CBK066478] | 89.3%
CSc1ccc(-c2cn3ccnc3c(NCCc3ccncc3)n2)cc1 [CBK066479] | 102%
CCNc1nc(-c2cc(Cl)cc(Cl)c2)cn2ccnc12 [CBK066483] | 89.6%
CCNc1nc(-c2ccc(SCC)cc2)cn2ccnc12 [CBK066489] | 114%
Clc1ccc(Nc2nc(-c3ccoc3)cn3ccnc23)cc1 [CBK066497] | 102%
Cc1csc(-c2cn3ccnc3c(N(C)CCN(C)C)n2)c1 [CBK066553] | 96.3%

Structure (SMILES) | viability at 28.5 h, 10 µM
CCCNc1nc(-c2ccc(F)c(F)c2)cn2ccnc12 [CBK066573] | 94.8%
CCOc1cccc(-c2cn3ccnc3c(NCCc3ccccn3)n2)c1 [CBK066586] | 94.4%
Nc1ccc(-c2cn3ccnc3c(NCc3ccccc3)n2)cc1 [CBK066592] | 108%
CSc1ccc(-c2cn3ccnc3c(N3CCN(CCO)CC3)n2)cc1 [CBK066596] | 86.6%
c1coc(CNc2nc(-c3ccoc3)cn3ccnc23)c1 [CBK066610] | 98.8%
CCOc1cccc(-c2cn3ccnc3c(N3CCN(CCO)CC3)n2)c1 [CBK066612] | 95.9%
COc1cc(CNc2nc(-c3ccc(C(C)(C)C)cc3)cn3ccnc23)cc(OC)c1OC [CBK066615] | 99.3%
CCCNc1nc(-c2ccc(SC)cc2)cn2ccnc12 [CBK066619] | 95.5%
CCCNc1nc(-c2ccc(C)c(C)c2)cn2ccnc12 [CBK066627] | 101%
FC(F)(F)c1cccc(-c2cn3ccnc3c(NCc3ccncc3)n2)c1 [CBK066632] | 97.8%
c1ccc(CCNc2nc(-c3cccs3)cn3ccnc23)nc1 [CBK066633] | 101%
CN1CCN(c2nc(-c3ccoc3)cn3ccnc23)CC1 [CBK066645] | 97.1%
Clc1cc(Cl)cc(-c2cn3ccnc3c(NCc3ccncc3)n2)c1 [CBK066664] | 94.3%
Cc1cc(-c2cn3ccnc3c(N3CCOCC3)n2)cc(C)c1O [CBK066691] | 97.4%
OCC1CCCN1c1nc(-c2ccc(Oc3ccccc3)cc2)cn2ccnc12 (stereo not drawn) [CBK066713] | 100%
CCOc1cccc(-c2cn3ccnc3c(NCc3cc(OC)c(OC)c(OC)c3)n2)c1 [CBK066717] | 96.7%
c1cn2cc(-c3ccoc3)nc(NC3CC3)c2n1 [CBK066720] | 102%
COC(=O)c1ccc(-c2cn3ccnc3c(NCc3ccncc3)n2)cc1 [CBK066734] | 88.2%
O=C1N=C(NC2CCCCCC2)SC1Cc1nc2ccccc2[nH]1 (stereo not drawn) [CBK066789] | 83.7%
CCN(Cc1cncn1C)C(CC1CCCCC1)c1ccccc1 (stereo not drawn) [CBK066815T] | 122%
O=C(Nc1ccc(Br)cc1C(=O)O)c1cccs1 [CBK066822] | 86.8%
